Source: paper PMC11864979, “First-in-class ultralong-target-residence-time p38α inhibitors as a mitosis-targeted therapy for colorectal cancer” (Nature Cancer, 2025)
Read-outs that look alike come from different tables or passages of the source.

What was measured:
Test in all cases: selectivity profiling in a panel of 340 wild-type kinases (Reaction Biology Europe)
Type in all cases: binding
[1] = biological target: T1, 340 wild-type kinases (Homo sapiens, UniProt P05771)
T1 construct: purchased Reaction Biology Europe

[2] = biological target: T2, 340 wild-type kinases (Homo sapiens, UniProt P10398, Y301D/Y302D)
T2 construct: purchased Reaction Biology Europe
T2 sequence (P10398 1-606 Y301D/Y302D): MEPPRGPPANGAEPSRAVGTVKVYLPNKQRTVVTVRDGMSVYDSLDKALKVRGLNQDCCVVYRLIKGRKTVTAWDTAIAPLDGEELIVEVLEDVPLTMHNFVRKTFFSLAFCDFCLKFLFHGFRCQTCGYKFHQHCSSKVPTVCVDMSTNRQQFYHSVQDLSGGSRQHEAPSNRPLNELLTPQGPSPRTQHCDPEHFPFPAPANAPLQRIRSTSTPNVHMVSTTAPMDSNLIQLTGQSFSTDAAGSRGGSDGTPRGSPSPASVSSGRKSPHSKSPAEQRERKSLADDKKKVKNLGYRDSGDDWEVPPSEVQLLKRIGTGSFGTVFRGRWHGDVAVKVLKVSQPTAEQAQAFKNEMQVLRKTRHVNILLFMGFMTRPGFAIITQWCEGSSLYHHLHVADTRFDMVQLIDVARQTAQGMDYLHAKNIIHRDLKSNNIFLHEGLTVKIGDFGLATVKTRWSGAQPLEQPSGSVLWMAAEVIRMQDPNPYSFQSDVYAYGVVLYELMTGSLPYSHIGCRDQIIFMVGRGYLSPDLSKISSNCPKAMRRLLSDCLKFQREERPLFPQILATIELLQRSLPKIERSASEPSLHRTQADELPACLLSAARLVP

[3] = biological target: T3, 340 wild-type kinases (Homo sapiens, UniProt Q9HBY8)
T3 construct: purchased Reaction Biology Europe
T3 sequence (Q9HBY8 1-367): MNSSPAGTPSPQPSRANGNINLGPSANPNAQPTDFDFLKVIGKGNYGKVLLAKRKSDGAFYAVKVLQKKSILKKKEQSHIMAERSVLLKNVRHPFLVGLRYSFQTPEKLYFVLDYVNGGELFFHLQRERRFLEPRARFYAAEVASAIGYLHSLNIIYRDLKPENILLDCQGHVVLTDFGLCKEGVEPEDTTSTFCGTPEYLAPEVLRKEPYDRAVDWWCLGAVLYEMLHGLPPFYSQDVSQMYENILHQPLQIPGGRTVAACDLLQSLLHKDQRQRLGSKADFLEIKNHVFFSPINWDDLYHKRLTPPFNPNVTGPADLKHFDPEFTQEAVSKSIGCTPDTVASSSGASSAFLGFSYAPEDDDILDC

[4] = biological target: T4, 340 wild-type kinases (Homo sapiens, UniProt O14920)
T4 construct: purchased Reaction Biology Europe
T4 sequence (O14920 1-756): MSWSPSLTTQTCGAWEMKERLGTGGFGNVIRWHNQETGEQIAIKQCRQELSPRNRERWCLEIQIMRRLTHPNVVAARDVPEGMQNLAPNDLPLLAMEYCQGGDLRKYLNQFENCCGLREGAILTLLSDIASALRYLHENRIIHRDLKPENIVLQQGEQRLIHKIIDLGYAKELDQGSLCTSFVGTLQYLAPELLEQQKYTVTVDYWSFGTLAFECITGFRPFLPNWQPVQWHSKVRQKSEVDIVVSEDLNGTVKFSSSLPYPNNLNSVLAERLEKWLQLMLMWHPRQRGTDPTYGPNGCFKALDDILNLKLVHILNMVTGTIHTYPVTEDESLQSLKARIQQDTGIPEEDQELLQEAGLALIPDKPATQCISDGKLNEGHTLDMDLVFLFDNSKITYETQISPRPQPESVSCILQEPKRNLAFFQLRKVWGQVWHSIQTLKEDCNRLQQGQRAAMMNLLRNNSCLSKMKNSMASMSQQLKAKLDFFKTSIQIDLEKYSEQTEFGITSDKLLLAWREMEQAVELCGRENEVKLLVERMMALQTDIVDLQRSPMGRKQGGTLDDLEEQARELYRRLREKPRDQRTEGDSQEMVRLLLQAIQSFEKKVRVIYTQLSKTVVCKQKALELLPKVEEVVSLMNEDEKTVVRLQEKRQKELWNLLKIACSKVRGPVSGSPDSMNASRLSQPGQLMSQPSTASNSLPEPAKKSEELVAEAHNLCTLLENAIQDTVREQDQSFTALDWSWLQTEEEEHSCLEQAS

[5] = biological target: T5, 340 wild-type kinases (Homo sapiens, UniProt Q9UQM7)
T5 construct: purchased Reaction Biology Europe
T5 sequence (Q9UQM7 whole entry): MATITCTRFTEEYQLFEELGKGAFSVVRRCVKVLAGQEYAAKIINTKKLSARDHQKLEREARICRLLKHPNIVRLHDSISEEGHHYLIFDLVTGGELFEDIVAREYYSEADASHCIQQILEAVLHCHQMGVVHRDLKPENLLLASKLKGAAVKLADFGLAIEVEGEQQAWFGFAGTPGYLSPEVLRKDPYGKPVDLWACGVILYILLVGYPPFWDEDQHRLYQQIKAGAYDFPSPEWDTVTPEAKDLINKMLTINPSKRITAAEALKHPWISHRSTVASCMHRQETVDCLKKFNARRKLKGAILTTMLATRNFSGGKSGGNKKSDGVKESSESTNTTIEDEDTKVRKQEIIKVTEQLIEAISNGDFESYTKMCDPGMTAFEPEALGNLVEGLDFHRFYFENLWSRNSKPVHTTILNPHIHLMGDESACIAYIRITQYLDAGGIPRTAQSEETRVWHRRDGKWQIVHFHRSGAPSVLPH

[6] = biological target: T6, 340 wild-type kinases (Homo sapiens, UniProt P12931)
T6 construct: purchased Reaction Biology Europe
T6 sequence (P12931 whole entry): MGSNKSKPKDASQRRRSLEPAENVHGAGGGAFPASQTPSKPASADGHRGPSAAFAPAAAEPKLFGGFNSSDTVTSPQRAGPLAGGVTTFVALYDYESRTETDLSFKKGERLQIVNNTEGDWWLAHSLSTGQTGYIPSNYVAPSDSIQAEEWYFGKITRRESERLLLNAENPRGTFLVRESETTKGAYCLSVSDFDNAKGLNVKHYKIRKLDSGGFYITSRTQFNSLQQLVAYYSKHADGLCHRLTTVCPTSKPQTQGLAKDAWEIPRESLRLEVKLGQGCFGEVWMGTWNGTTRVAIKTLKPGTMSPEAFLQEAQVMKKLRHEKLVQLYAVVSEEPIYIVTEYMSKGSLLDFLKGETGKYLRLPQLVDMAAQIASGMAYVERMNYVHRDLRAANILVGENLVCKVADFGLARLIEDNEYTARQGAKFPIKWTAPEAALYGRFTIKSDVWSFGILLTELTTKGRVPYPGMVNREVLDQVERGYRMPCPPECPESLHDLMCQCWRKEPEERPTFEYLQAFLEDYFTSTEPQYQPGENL

[7] = biological target: T7, 340 wild-type kinases (Homo sapiens, UniProt P19525)
T7 construct: purchased Reaction Biology Europe
T7 sequence (P19525 whole entry): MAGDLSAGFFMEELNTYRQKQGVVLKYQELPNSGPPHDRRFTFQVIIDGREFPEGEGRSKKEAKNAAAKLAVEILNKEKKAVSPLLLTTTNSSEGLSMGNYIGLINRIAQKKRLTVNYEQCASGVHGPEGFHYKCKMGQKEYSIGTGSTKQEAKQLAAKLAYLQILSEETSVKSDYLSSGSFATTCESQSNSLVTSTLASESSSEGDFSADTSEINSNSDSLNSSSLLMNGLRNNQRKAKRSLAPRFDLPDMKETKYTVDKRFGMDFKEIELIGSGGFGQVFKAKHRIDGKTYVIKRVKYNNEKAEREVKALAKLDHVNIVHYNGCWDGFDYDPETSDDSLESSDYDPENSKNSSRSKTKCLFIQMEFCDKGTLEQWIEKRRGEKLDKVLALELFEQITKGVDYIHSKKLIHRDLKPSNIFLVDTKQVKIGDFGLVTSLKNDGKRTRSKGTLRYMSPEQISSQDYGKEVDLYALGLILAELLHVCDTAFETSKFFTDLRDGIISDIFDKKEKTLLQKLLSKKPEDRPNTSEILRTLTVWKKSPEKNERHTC

CNC(=O)c1ccc2c(c1)C(=O)c1ccc(Nc3ccc(F)c(NC(=O)C4CC4)c3)cc1CC2 [Compound 2015]
remaining activity at 0.2 µM ([1]; 0.2 µM 2015, read-out: PKCbeta1 residual activity): 109% | remaining activity at 1 µM ([1]; 1 µM 2015, read-out: PKCbeta1 residual activity): 100% | remaining activity at 0.2 µM ([1]; PKCbeta1, 0.2 µM, read-out: residual activity): 109% | remaining activity at 1 µM ([1]; PKCbeta1, 1 µM, read-out: residual activity): 100% | remaining activity at 0.2 µM ([1]; PKCbeta2, 0.2 µM, read-out: residual activity): 103% | remaining activity at 1 µM ([1]; PKCbeta2, 1 µM, read-out: residual activity): 109% | remaining activity at 0.2 µM ([2]; 0.2 µM 2015, read-out: ARAF YDYD residual activity): 98.8% | remaining activity at 1 µM ([2]; 1 µM 2015, read-out: ARAF YDYD residual activity): 106% | remaining activity at 0.2 µM ([2]; ARAF YDYD, 0.2 µM, read-out: residual activity): 98.8% | remaining activity at 1 µM ([2]; ARAF YDYD, 1 µM, read-out: residual activity): 106% | remaining activity at 0.2 µM ([3]; 0.2 µM 2015, read-out: SGK2 residual activity): 109% | remaining activity at 1 µM ([3]; 1 µM 2015, read-out: SGK2 residual activity): 104% | remaining activity at 0.2 µM ([3]; SGK2, 0.2 µM, read-out: residual activity): 109% | remaining activity at 1 µM ([3]; SGK2, 1 µM, read-out: residual activity): 104% | remaining activity at 0.2 µM ([4]; 0.2 µM 2015, read-out: IKKbeta residual activity): 108% | remaining activity at 1 µM ([4]; 1 µM 2015, read-out: IKKbeta residual activity): 99% | remaining activity at 0.2 µM ([4]; IKKbeta, 0.2 µM, read-out: residual activity): 108% | remaining activity at 1 µM ([4]; IKKbeta, 1 µM, read-out: residual activity): 99% | remaining activity at 0.2 µM ([5]; 0.2 µM 2015, read-out: CAMK2A residual activity): 102% | remaining activity at 1 µM ([5]; 1 µM 2015, read-out: CAMK2A residual activity): 96.4% | remaining activity at 1 µM ([5]; CAMK2A, 1 µM, read-out: residual activity): 96.4% | remaining activity at 0.2 µM ([6]; 0.2 µM 2015, read-out: SRC residual activity): 105% | remaining activity at 1 µM ([6]; 1 µM 2015, read-out: SRC residual activity): 95.5% | remaining activity at 0.2 µM ([6]; SRC, 0.2 µM, read-out: residual activity): 105% | remaining activity at 1 µM ([6]; SRC, 1 µM, read-out: residual activity): 95.5% | remaining activity at 0.2 µM ([7]; 0.2 µM 2015, read-out: EIF2AK2 residual activity): 84.5% | remaining activity at 1 µM ([7]; 1 µM 2015, read-out: EIF2AK2 residual activity): 85.2% | remaining activity at 0.2 µM ([7]; EIF2AK2, 0.2 µM, read-out: residual activity): 84.5% | remaining activity at 1 µM ([7]; EIF2AK2, 1 µM, read-out: residual activity): 85.2%
